# Data taken from patent US20080009418A1, “Selective Inhibitors” (Alchemia LTD., priority 2004, published 2008).
# Assays:
# Human δ-opioid (DOP) = target: T1, Human δ-opioid (DOP) (Homo sapiens, UniProt P41143); assay: Radioligand binding, human δ-opioid (DOP) membranes, FlashPlate, [3H]-Bremazocine; settings: compound at 10 μM, [3H]-Bremazocine
# T1 construct: purchased Perkin Elmer Biosignal
# Summary of the method: (§1)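 Cloned human receptor membranes were coated onto FlashPlate wells and incubated with radioligand and compound (added from a 0.5 mM DMSO daughter plate) for 1 hour at room temperature in the dark. Scintillation counting gave percent inhibition, with DMSO defining total and reference ligand defining non-specific binding.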
# Human κ-Opioid (KOP) = target: T2, Human κ-Opioid (KOP) (Homo sapiens, UniProt P41145); assay: Radioligand binding, human κ-opioid (KOP) membranes, filtration, [3H]-Diprenorphine; settings: compound at 10 μM, [3H]-Diprenorphine
# T2 construct: purchased Perkin Elmer Biosignal
# T2 sequence (P41145 whole entry): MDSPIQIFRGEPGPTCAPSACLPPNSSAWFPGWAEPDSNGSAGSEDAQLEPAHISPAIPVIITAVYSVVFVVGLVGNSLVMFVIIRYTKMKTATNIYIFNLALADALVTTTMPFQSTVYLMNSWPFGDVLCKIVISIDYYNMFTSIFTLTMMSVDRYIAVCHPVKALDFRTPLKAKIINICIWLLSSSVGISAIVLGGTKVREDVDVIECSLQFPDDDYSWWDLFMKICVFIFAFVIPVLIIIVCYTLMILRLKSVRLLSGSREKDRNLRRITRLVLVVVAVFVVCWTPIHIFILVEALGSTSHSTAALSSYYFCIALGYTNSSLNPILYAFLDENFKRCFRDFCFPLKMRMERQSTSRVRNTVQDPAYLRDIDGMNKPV
# Summary of the method: (§2)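 Percent inhibition of radioligand binding measured on recombinant human membranes: NK1 with [125I]-Substance P, KOP with [3H]-Diprenorphine. Incubation 1 h at room temperature, then harvest onto 0.3% PEI-soaked filters, cold Tris-HCl pH 7.4 washes and scintillation counting; non-specific binding from reference ligand wells.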
# Human Melanocortin (MC3) = target: T3, Human Melanocortin (MC3) (Homo sapiens, UniProt P41968); assay: Radioligand binding, human melanocortin MC3 membranes, FlashPlate, [125I]-NDP-αMSH; settings: compound at 10 μM, [125I]-NDP-αMSH
# T3 construct: purchased Perkin Elmer Biosignal
# T3 sequence (P41968 whole entry): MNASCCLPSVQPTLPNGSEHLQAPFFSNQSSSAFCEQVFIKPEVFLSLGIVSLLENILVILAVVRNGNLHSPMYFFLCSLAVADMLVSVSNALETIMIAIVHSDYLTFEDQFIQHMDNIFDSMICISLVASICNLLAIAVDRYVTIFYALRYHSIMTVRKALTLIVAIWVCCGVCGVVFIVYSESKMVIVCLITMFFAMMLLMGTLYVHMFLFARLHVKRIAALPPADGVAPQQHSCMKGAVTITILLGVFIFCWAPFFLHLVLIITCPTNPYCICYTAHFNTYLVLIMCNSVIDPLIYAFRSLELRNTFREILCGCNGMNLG
# Summary of the method: as §1
# Human Melanocortin (MC4) = target: T4, Human Melanocortin (MC4) (Homo sapiens, UniProt P32245); assay: Radioligand binding, human melanocortin MC4 membranes, FlashPlate, [125I]-NDP-αMSH; settings: compound at 10 μM, [125I]-NDP-αMSH
# T4 construct: purchased Perkin Elmer Biosignal
# T4 sequence (P32245 whole entry): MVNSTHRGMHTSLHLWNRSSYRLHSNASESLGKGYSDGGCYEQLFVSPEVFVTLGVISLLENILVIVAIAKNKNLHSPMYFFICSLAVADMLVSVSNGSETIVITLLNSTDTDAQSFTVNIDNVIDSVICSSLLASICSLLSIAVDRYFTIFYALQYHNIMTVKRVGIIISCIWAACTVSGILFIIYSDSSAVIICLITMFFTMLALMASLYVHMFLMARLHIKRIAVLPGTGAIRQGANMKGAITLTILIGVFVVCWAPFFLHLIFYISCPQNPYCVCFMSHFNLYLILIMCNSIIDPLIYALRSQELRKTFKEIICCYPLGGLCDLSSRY
# Summary of the method: as §1
# Human melanocortin (MC5) = target: T5, Human melanocortin (MC5) (Homo sapiens, UniProt P33032); assay: Radioligand binding, human melanocortin MC5 membranes, FlashPlate, [125I]-NDP-αMSH; settings: compound at 10 μM, [125I]-NDP-αMSH
# T5 construct: purchased Perkin Elmer Biosignal
# T5 sequence (P33032 whole entry): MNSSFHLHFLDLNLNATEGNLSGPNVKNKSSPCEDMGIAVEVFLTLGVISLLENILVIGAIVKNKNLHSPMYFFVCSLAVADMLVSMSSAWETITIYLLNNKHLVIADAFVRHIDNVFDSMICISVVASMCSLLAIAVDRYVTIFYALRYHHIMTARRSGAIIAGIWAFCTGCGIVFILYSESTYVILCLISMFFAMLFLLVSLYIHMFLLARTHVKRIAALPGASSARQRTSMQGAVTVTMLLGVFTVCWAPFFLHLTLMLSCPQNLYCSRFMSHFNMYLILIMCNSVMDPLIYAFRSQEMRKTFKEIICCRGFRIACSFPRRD
# Summary of the method: as §1
# [1] = target: T6, Human melanin-concentrating hormone (MCH1) (Homo sapiens, UniProt Q99705); assay: Radioligand binding, human melanin-concentrating hormone MCH1 membranes, FlashPlate, [125I]-S36057; settings: compound at 10 μM
# T6 construct: purchased Perkin Elmer Biosignal
# T6 sequence (Q99705 whole entry): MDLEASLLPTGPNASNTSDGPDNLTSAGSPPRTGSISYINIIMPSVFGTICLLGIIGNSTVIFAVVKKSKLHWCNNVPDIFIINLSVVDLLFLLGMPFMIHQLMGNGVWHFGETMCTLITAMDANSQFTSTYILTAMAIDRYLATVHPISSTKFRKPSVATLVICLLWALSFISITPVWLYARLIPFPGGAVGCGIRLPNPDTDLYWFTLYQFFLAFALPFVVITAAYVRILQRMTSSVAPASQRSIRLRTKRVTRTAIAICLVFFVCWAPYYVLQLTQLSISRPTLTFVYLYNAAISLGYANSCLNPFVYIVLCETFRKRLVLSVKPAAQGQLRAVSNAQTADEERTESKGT
# Summary of the method: as §1
# Human μ-opioid (MOP) = target: T7, Human μ-opioid (MOP) (Homo sapiens, UniProt P35372); assay: Radioligand binding, human μ-opioid (MOP) membranes, FlashPlate, [3H]-Naloxone; settings: compound at 10 μM, [3H]-Naloxone
# T7 construct: purchased Perkin Elmer Biosignal
# T7 sequence (P35372 whole entry): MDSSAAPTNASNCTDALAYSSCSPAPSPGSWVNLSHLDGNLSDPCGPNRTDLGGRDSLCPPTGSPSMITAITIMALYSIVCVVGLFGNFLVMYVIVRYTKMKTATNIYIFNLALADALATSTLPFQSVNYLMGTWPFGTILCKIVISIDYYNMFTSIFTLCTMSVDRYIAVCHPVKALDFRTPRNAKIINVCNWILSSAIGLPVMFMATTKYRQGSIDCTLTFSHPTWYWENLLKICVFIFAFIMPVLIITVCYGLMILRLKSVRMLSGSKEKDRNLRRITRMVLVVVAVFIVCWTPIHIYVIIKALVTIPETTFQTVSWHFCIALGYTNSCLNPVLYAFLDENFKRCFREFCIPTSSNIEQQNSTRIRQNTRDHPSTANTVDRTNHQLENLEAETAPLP
# Summary of the method: as §1
# Human neurokinin (NK1) = target: T8, Human neurokinin (NK1) (Homo sapiens, UniProt P25103); assay: Radioligand binding, human neurokinin NK1 membranes, filtration, [125I]-Substance P; settings: compound at 10 μM, [125I]-Substance P
# T8 construct: purchased Perkin Elmer Biosignal
# T8 sequence (P25103 whole entry): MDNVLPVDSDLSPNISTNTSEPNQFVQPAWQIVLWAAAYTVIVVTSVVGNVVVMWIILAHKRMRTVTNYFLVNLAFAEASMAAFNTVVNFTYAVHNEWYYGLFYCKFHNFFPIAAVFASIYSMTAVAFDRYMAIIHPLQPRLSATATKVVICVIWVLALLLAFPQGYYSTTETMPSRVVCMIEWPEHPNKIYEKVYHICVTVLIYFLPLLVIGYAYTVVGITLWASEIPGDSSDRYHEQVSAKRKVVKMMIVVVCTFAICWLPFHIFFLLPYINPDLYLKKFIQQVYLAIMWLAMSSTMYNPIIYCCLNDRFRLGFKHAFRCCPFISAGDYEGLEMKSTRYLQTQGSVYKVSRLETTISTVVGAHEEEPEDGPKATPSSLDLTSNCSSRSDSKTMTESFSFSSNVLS
# Summary of the method: as §2
# [2] = target: T9, Human neuropeptide Y (NPY-Y1) (Homo sapiens, UniProt P25929); assay: Radioligand binding, human neuropeptide Y NPY-Y1 membranes, FlashPlate, [125I]-PYY; settings: compound at 10 μM, [125I]-PYY
# T9 construct: purchased Perkin Elmer Biosignal
# T9 sequence (P25929 1-384): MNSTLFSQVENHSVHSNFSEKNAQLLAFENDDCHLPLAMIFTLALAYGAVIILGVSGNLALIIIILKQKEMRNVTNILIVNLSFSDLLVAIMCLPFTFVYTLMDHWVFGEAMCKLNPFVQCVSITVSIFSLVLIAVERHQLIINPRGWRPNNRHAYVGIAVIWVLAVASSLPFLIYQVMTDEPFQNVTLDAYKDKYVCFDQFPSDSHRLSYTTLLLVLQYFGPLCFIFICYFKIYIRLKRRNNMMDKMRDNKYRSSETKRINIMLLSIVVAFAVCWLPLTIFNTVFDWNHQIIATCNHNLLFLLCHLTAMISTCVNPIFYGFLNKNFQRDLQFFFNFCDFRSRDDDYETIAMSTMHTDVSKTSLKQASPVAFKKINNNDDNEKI
# Summary of the method: as §1
# Human opioid (ORL1) = target: T10, Human opioid (ORL1) (Homo sapiens, UniProt P41146); assay: Radioligand binding, human opioid ORL1 membranes, FlashPlate, [125I]-Nociceptin; settings: compound at 10 μM, [125I]-Nociceptin
# T10 construct: purchased Perkin Elmer Biosignal
# T10 sequence (P41146 whole entry): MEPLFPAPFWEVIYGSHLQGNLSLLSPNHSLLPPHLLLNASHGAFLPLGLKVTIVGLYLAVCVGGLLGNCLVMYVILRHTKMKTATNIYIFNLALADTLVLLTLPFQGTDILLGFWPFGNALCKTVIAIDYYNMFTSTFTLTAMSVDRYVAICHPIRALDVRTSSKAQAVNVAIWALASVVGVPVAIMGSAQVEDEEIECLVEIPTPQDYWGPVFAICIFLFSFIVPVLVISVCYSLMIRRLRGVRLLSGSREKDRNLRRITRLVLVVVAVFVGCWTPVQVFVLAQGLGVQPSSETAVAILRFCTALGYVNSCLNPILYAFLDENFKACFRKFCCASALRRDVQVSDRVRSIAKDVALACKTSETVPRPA
# Summary of the method: as §1
# Mouse urotensin (mUR2) = target: T11, Mouse urotensin (mUR2) (Mus musculus, UniProt Q8VIH9); assay: Radioligand binding, mouse urotensin mUR2 membranes, FlashPlate, [125I]-Urotensin II; settings: compound at 10 μM, [125I]-Urotensin II
# T11 construct: purchased Perkin Elmer Biosignal
# T11 sequence (Q8VIH9 1-385): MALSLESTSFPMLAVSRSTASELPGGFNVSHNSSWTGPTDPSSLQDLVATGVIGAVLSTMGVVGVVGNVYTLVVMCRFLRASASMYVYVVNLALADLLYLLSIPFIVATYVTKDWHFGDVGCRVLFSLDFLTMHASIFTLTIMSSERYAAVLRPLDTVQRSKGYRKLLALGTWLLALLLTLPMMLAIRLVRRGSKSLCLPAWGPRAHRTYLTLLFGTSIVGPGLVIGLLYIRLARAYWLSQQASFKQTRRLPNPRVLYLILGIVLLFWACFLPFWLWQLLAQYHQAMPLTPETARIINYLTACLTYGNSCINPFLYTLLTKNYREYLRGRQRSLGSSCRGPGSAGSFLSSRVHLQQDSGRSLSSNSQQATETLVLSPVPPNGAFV
# Summary of the method: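 Cloned mouse urotensin (mUR2) receptor membranes from Perkin Elmer Biosignal were immobilized in FlashPlate microplates using a proprietary coating. Each well got 19.5 μl buffer, then 0.5 μl of DMSO, reference ligand, or compound. Adding 5 μl of [125I]-Urotensin II, diluted to 5× final concentration in binding buffer, started binding. Plates were sealed with TopSeal-A and incubated 1 hour at room temperature in the dark. Wells were counted for 30 seconds each on a TopCount after a 60-second delay, and percentage inhibition was calculated.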
# T1 sequence (P41143 whole entry): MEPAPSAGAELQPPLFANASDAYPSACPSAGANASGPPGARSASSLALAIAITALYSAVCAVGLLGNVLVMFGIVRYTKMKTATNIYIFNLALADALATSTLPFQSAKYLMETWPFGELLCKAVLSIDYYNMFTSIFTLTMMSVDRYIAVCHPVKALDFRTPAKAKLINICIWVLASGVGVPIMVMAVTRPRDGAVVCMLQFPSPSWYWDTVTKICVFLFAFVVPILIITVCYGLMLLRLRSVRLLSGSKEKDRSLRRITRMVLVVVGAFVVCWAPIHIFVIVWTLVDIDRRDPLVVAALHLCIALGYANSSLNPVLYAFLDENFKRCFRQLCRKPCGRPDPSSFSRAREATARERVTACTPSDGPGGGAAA
smiles,measurement,setting,value
CO[C@H]1[C@H](O)[C@@H](COCc2ccccc2)OC(OCc2ccc(Cl)cc2)[C@@H]1NC(=O)CCNC(=N)N (stereo partly shown) [compound 102],"A1 radioligand binding, percentage inhibition",Human δ-opioid (DOP),− (“−” indicates less than 50% inhibition at 10 μM)
same,"A2 radioligand binding, percentage inhibition",Human κ-Opioid (KOP),− (“−” indicates less than 50% inhibition at 10 μM)
same,"A3 radioligand binding, percentage inhibition",Human Melanocortin (MC3),− (“−” indicates less than 50% inhibition at 10 μM)
same,"A4 radioligand binding, percentage inhibition",Human Melanocortin (MC4),− (“−” indicates less than 50% inhibition at 10 μM)
same,"A5 radioligand binding, percentage inhibition",Human melanocortin (MC5),+ (“+” indicates greater than 50% inhibition at 10 μM)
same,"A6 radioligand binding, percentage inhibition",[1]; [125I]-S36057,− (“−” indicates less than 50% inhibition at 10 μM)
same,"A7 radioligand binding, percentage inhibition",Human μ-opioid (MOP),− (“−” indicates less than 50% inhibition at 10 μM)
same,"A8 radioligand binding, percentage inhibition",Human neurokinin (NK1),− (“−” indicates less than 50% inhibition at 10 μM)
same,"A9 radioligand binding, percentage inhibition",[2],− (“−” indicates less than 50% inhibition at 10 μM)
same,"A10 radioligand binding, percentage inhibition",Human opioid (ORL1),− (“−” indicates less than 50% inhibition at 10 μM)
same,"A11 radioligand binding, percentage inhibition",Mouse urotensin (mUR2),− (“−” indicates less than 50% inhibition at 10 μM)
N=C(N)NCCC(=O)N[C@H]1C(OCc2ccc(Cl)cc2)O[C@H](COCc2ccc3ccccc3c2)[C@@H](O)[C@@H]1OCc1ccc2ccccc2c1 (stereo partly shown) [compound 529],"A1: inhibition of radioligand binding, human δ-opioid (DOP)",Human δ-opioid (DOP),− (“−” indicates less than 50% inhibition at 10 μM)
same,"A2: inhibition of radioligand binding, human κ-opioid (KOP)",Human κ-Opioid (KOP); 10 µM,+ (“+” indicates greater than 50% inhibition at 10 μM)
same,"A3: inhibition of radioligand binding, human melanocortin (MC3)",Human Melanocortin (MC3); 10 µM,+ (“+” indicates greater than 50% inhibition at 10 μM)
same,"A4: inhibition of radioligand binding, human melanocortin (MC4)",Human Melanocortin (MC4); 10 µM,+ (“+” indicates greater than 50% inhibition at 10 μM)
same,"A5: inhibition of radioligand binding, human melanocortin (MC5)",Human melanocortin (MC5); 10 µM,+ (“+” indicates greater than 50% inhibition at 10 μM)
same,"A6: inhibition of radioligand binding, human melanin-concentrating hormone (MCH1)","[1]; [125I]-S36057, 10 µM",+ (“+” indicates greater than 50% inhibition at 10 μM)
same,"A7: inhibition of radioligand binding, human μ-opioid (MOP)",Human μ-opioid (MOP),− (“−” indicates less than 50% inhibition at 10 μM)
same,"A8: inhibition of radioligand binding, human neurokinin (NK1)",Human neurokinin (NK1),+ (“+” indicates greater than 50% inhibition at 10 μM)
same,"A9: inhibition of radioligand binding, human neuropeptide Y (NPY-Y1)",[2],− (“−” indicates less than 50% inhibition at 10 μM)
same,"A10: inhibition of radioligand binding, human opioid (ORL1)",Human opioid (ORL1),− (“−” indicates less than 50% inhibition at 10 μM)
same,"A11: inhibition of radioligand binding, mouse urotensin (mUR2)",Mouse urotensin (mUR2),− (“−” indicates less than 50% inhibition at 10 μM)
CSC1OC(COCc2ccc(Cl)cc2)C(O)C(OCc2ccc3ccccc3c2)C1NC(=O)CCNC(=N)N (stereo not shown) [compound 309],"A1: inhibition of radioligand binding, human δ-opioid (DOP)",Human δ-opioid (DOP),− (“−” indicates less than 50% inhibition at 10 μM)
same,"A2: inhibition of radioligand binding, human κ-opioid (KOP)",Human κ-Opioid (KOP),− (“−” indicates less than 50% inhibition at 10 μM)
same,"A3: inhibition of radioligand binding, human melanocortin (MC3)",Human Melanocortin (MC3),− (“−” indicates less than 50% inhibition at 10 μM)
same,"A4: inhibition of radioligand binding, human melanocortin (MC4)",Human Melanocortin (MC4),− (“−” indicates less than 50% inhibition at 10 μM)
same,"A5: inhibition of radioligand binding, human melanocortin (MC5)",Human melanocortin (MC5),+ (“+” indicates greater than 50% inhibition at 10 μM)
same,"A6: inhibition of radioligand binding, human melanin-concentrating hormone (MCH1)",[1]; [125I]-S36057,− (“−” indicates less than 50% inhibition at 10 μM)
same,"A7: inhibition of radioligand binding, human μ-opioid (MOP)",Human μ-opioid (MOP),− (“−” indicates less than 50% inhibition at 10 μM)
same,"A8: inhibition of radioligand binding, human neurokinin (NK1)",Human neurokinin (NK1),+ (“+” indicates greater than 50% inhibition at 10 μM)
same,"A9: inhibition of radioligand binding, human neuropeptide Y (NPY-Y1)",[2],− (“−” indicates less than 50% inhibition at 10 μM)
same,"A10: inhibition of radioligand binding, human opioid (ORL1)",Human opioid (ORL1),− (“−” indicates less than 50% inhibition at 10 μM)
same,"A11: inhibition of radioligand binding, mouse urotensin (mUR2)",Mouse urotensin (mUR2),− (“−” indicates less than 50% inhibition at 10 μM)
COCC1OC(OCCc2ccccc2)C(NC(=O)CN)C(OCc2ccc(Cl)cc2)C1O (stereo not shown) [compound 219],A1: inhibition of radioligand binding,Human δ-opioid (DOP); FlashPlate,− (“−” indicates less than 50% inhibition at 10 μM)
same,A2: inhibition of radioligand binding,Human κ-Opioid (KOP); filtration,− (“−” indicates less than 50% inhibition at 10 μM)
same,A3: inhibition of radioligand binding,Human Melanocortin (MC3); FlashPlate,− (“−” indicates less than 50% inhibition at 10 μM)
same,A4: inhibition of radioligand binding,Human Melanocortin (MC4); FlashPlate,− (“−” indicates less than 50% inhibition at 10 μM)
same,A5: inhibition of radioligand binding,Human melanocortin (MC5); FlashPlate,+ (“+” indicates greater than 50% inhibition at 10 μM)
same,A6: inhibition of radioligand binding,"[1]; [125I]-S36057, FlashPlate",− (“−” indicates less than 50% inhibition at 10 μM)
same,A7: inhibition of radioligand binding,Human μ-opioid (MOP); FlashPlate,− (“−” indicates less than 50% inhibition at 10 μM)
same,A8: inhibition of radioligand binding,Human neurokinin (NK1); filtration,+ (“+” indicates greater than 50% inhibition at 10 μM)
same,A9: inhibition of radioligand binding,[2]; FlashPlate,− (“−” indicates less than 50% inhibition at 10 μM)
same,A10: inhibition of radioligand binding,Human opioid (ORL1); FlashPlate,− (“−” indicates less than 50% inhibition at 10 μM)
same,A11: inhibition of radioligand binding,Mouse urotensin (mUR2); FlashPlate,− (“−” indicates less than 50% inhibition at 10 μM)
"NCCCC(=O)NC1C(OCc2ccc3ccccc3c2)OC(COCc2ccc3ccccc3c2)C(O)C1OCc1ccc(Cl)cc1 (single isomer, unassigned) [compound 455]",A1: inhibition of radioligand binding,Human δ-opioid (DOP); human DOP membranes,− (“−” indicates less than 50% inhibition at 10 μM)
same,A2: inhibition of radioligand binding,"Human κ-Opioid (KOP); human KOP membranes, 10 µM",+ (“+” indicates greater than 50% inhibition at 10 μM)
same,A3: inhibition of radioligand binding,Human Melanocortin (MC3); human MC3 membranes,+ (“+” indicates greater than 50% inhibition at 10 μM)
same,A4: inhibition of radioligand binding,Human Melanocortin (MC4); human MC4 membranes,+ (“+” indicates greater than 50% inhibition at 10 μM)
same,A5: inhibition of radioligand binding,Human melanocortin (MC5); human MC5 membranes,+ (“+” indicates greater than 50% inhibition at 10 μM)
same,A6: inhibition of radioligand binding,"[1]; [125I]-S36057, human MCH1 membranes",+ (“+” indicates greater than 50% inhibition at 10 μM)
same,A7: inhibition of radioligand binding,"Human μ-opioid (MOP); human MOP membranes, 10 µM",+ (“+” indicates greater than 50% inhibition at 10 μM)
same,A8: inhibition of radioligand binding,Human neurokinin (NK1); human NK1 membranes,+ (“+” indicates greater than 50% inhibition at 10 μM)
same,A9: inhibition of radioligand binding,[2]; human NPY-Y1 membranes,− (“−” indicates less than 50% inhibition at 10 μM)
same,A10: inhibition of radioligand binding,"Human opioid (ORL1); human ORL1 membranes, 10 µM",− (“−” indicates less than 50% inhibition at 10 μM)
same,A11: inhibition of radioligand binding,Mouse urotensin (mUR2); mouse mUR2 membranes,− (“−” indicates less than 50% inhibition at 10 μM)
